According to patent US20090099218A1, “SYNTHESIS OF NOVEL TUBULIN POLYMERIZATION INHIBITORS: BENZOYLPHENYLUREA (BPU) SULFUR ANALOGS” (priority 2007, published 2009):

What was measured:
LAPC-4 = assay: MTT growth inhibition, prostate cancer cell line LAPC-4; type: cell-based, human; details: MTT assay, average of three independent experiments
Procedure: (§1) This MTT assay was carried using human prostate cancer cell lines CWR22R, LAPC-4 and LnCap using Promega cell titer 96 nonradioactive cell proliferation kits. Cells were trypsinized and centrifuged at 1000 rpm for 5 minutes and the supernatant was aspirated. Cells were resuspended with HBSS to a concentration of 10^6/ml. Cell suspension was diluted in serum containing medium to plate 2000 cells/well/0.2 ml. Cell suspension was transferred to sterile solution basin. Cells were plated using multichannel pipette set at 200 μl and incubated overnight for attachment. One plate was prepared for day 0 MTT assay as follows: 100 μl of media was removed from each well using multichannel pipette and 15 μl of MTT reagent was added. Plates were incubated at 37° C. for 4 hrs. […] of STOP solution was added to each well and incubated at room temperature for 1 hour. Absorbance was measured at 570 and 650 nm on plate reader. All the media from the remaining plates were carefully removed and the cells were treated with the media containing drug. MTT assays were done on days 0, 3, 5 and 7. In the preliminary screening […] BPU sulfur analogs 6l, 6h, 6n, 7d and 8h were screened and their activity was compared with compound 1.
(§2) Compounds with significant inhibitory activity in pancreatic cancer cells were further evaluated against prostate cancer cell lines in the MTT assay, (Mosmann, T., J. Immunol. Methods 65:55-63 (1983)) and the results were compared to those for compound 1 (Table 3).

LnCaP = assay: MTT growth inhibition, prostate cancer cell line LnCaP; type: cell-based, human; details: MTT assay, average of three independent experiments
Procedure: as §1, §2

Panc1 = assay: MTT growth inhibition, pancreatic cell line Panc1; type: cell-based; details: MTT assay, 96 h treatment, average of three independent experiments
Procedure: (§3) Eight of these analogs 6d, 6h, 6n, 6g, 7b, 7d, 8g, and 8h were tested for their cytotoxicity in seven pancreatic cell lines ASPC1, Panc1, Panc203, Panc430, Pane 1005, MiaPaca2, and HS766T using MTT assay. Cells were trypsinized, seeded at 5×10^3 cells/well in 96-well plate and allowed to grow for 24 hours before the treatment with exponential increasing concentrations of drugs in the presence of 10% FBS. After a 96-hours period of treatment, 20 μl of MTT solution (5 mg/ml in PBS) were added to each well, and the plates were then incubated for 3 hours at 37° C. Medium was then replaced with 100 μl of DMSO per well. Plates were shaken and the optical density was measured at 570 nm using a multiwell plate reader (Bio-Rad, Model 550, Bio-Rad Inc., Hercules, Calif.). Each experiment was performed in triplicate for each drug concentration and was carried out independently at least 3 times. The IC50 value was defined as the concentration needed for a 50% reduction in the absorbance calculated based on the survival curves. Response to drug treatment was assessed by standardizing treatment groups to untreated controls. Compounds activity was compared with compound 1.
(§4) Table 2 (Growth Inhibition of Pancreatic Cancer Cell Lines by BPU and BPTU Analogues (IC50) a) compares the cytotoxicity of a series of new derivatives against a panel of seven pancreatic cancer cell lines, as determined by MTT assay. See, Mosmann, T., J. Immunol. Methods 65:55-63 (1983).

Panc430 = assay: MTT growth inhibition, pancreatic cell line Panc430; type: cell-based; details: MTT assay, 96 h treatment; average of three independent experiments
Procedure: as §3, §4

Panc203 = assay: MTT growth inhibition, pancreatic cell line Panc203; type: cell-based; details: MTT assay, 96 h treatment, average of three independent experiments
Procedure: as §3, §4

Panc1005 = assay: MTT growth inhibition, pancreatic cell line Panc1005; type: cell-based; details: MTT assay, 96 h treatment, average of three independent experiments
Procedure: as §3, §4

HS766 = assay: MTT growth inhibition, pancreatic cell line HS766; type: cell-based; details: MTT assay, 96 h treatment, average of three independent experiments
Procedure: as §3, §4

Miapaca2 = assay: MTT growth inhibition, pancreatic cell line Miapaca2; type: cell-based; details: MTT assay, 96 h treatment, average of three independent experiments
Procedure: as §3, §4

MCF-7 cells = assay: Apoptosis of MCF-7 cells; type: cell-based; details: 48 hours
CWR22R = assay: MTT growth inhibition, prostate cancer cell line CWR22R; type: cell-based, human; details: MTT assay, average of three independent experiments
ASPC1 = assay: MTT growth inhibition, pancreatic cell line ASPC1; type: cell-based; details: MTT assay, 96 h treatment, average of three independent experiments
Procedure: as §3, §4

tubulin [1] = assay: Inhibition of tubulin polymerization; type: biochemical; details: Tubulin was at 10 μM; read-out: tubulin IC50 ± SD (inhibition of tubulin polymerization)
Procedure: Briefly, tubulin polymerization was followed turbidimetrically at 350 nm in Beckman model DU7400 and DU7500 recording spectrophotometers equipped with electronic temperature controllers. […] Samples were pre-incubated for 15 min at 30° C. and chilled on ice. GTP (final concentration, 0.4 mmol/L) was added to each reaction mixture, and these were placed in cuvettes held at 0° C. Baselines were established, the temperature was raised to 30° C.

tubulin [2] = assay: Inhibition of [3H]colchicine binding; details: Tubulin 1 μM; [3H]colchicine and inhibitor at 5 μM

**Q.** Which results are given for `Cc1cc(NC(=O)NC(=O)c2ccccc2N(C)C)ccc1Oc1ncc(Br)cn1` [Compound 1, reference compound]?
**A.** IC50 (LAPC-4): 0.25 µM; IC50 (LnCaP): 0.5 µM; IC50 (Panc1): 0.7 µM; IC50 (Panc430): 0.8 µM; IC50 (Panc203): 0.95 µM; IC50 (Panc1005): 5 µM; IC50 (HS766): 1 µM; IC50 (Miapaca2): 0.85 µM; rate of apoptosis (MCF-7 cells; 10 nM): 16.1%; rate of apoptosis (MCF-7 cells; 30 nM): 19.5%; rate of apoptosis (MCF-7 cells; 100 nM): 27.7%; IC50 (CWR22R): 1 µM; IC50 (ASPC1): 0.85 µM

**Q.** How did the IC50 (Panc1; Homo sapiens, PANC-1) turn out when `Brc1cnc(Sc2ccc(N=CON=COc3ccccc3)cc2)nc1` [Compound 6g] was run?
**A.** The IC50 was over 10 µM.

**Q.** And the IC50 (Panc430)?
**A.** Its IC50 is 2 µM.

**Q.** What about the IC50 (Panc203; Homo sapiens, Panc203) of the same compound?
**A.** The IC50 was 7.5 µM.

**Q.** And the IC50 (Panc1005; Homo sapiens, Panc1005)?
**A.** The IC50 was over 10 µM.

**Q.** And the IC50 (HS766; Homo sapiens, Hs 766)?
**A.** The IC50 was 5.5 µM.

**Q.** And the IC50 (Miapaca2; Homo sapiens, MIA PaCa-2)?
**A.** Its IC50 is 5 µM.

**Q.** And the IC50 (ASPC1; Homo sapiens, ASPC1)?
**A.** Its IC50 is over 10 µM.

**Q.** Which results are given for `Brc1cnc(Sc2ccc(N=CSN=COc3ccccc3)cc2)nc1` [Compound 6h]?
**A.** IC50 (LAPC-4; Homo sapiens, LAPC4): 6 µM; IC50 (LnCaP; Homo sapiens, LNCaP): > 10 µM; IC50 (Panc1; Homo sapiens, PANC-1): 9.5 µM; IC50 (Panc430): 7.5 µM; IC50 (Panc203; Homo sapiens, Panc203): > 10 µM; IC50 (Panc1005; Homo sapiens, Panc1005): > 10 µM; IC50 (HS766; Homo sapiens, Hs 766): 8.5 µM; IC50 (Miapaca2; Homo sapiens, MIA PaCa-2): 10 µM; IC50 (CWR22R; Homo sapiens, 22Rv1): > 10 µM; IC50 (ASPC1; Homo sapiens, ASPC1): 10 µM

**Q.** How did the IC50 (LAPC-4; Homo sapiens, LAPC4) turn out when `O=[N+]([O-])c1ccccc1OC=NOC=Nc1ccc(Sc2ncccn2)cc1` [Compound 6l] was run?
**A.** Its IC50 is 0.6 µM.

**Q.** What about the IC50 (LnCaP; Homo sapiens, LNCaP) of the same compound?
**A.** The IC50 was 0.5 µM.

**Q.** And the IC50 (CWR22R; Homo sapiens, 22Rv1)?
**A.** The IC50 was 5 µM.

**Q.** With `O=C(NC(=O)c1ccccc1[N+](=O)[O-])Nc1ccc(Oc2nccc(Br)n2)cc1` [Compound 6m] as the compound, how does the IC50 (tubulin [1]) read?
**A.** The IC50 was 4.7 µM.

**Q.** What about the “colchicine binding (% ± SD), inhibition of [3H]colchicine binding” value (tubulin [2]) of the same compound?
**A.** The value was 21 ± 5%.

**Q.** And the IC50 (LAPC-4)?
**A.** The IC50 was 0.2 µM.

**Q.** What about the IC50 (LnCaP) of the same compound?
**A.** Its IC50 is 1 µM.

**Q.** And the IC50 (Panc1)?
**A.** The IC50 was 0.68 µM.

**Q.** What about the IC50 (Panc430) of the same compound?
**A.** Its IC50 is 10 µM.

**Q.** And the IC50 (Panc203)?
**A.** The IC50 was over 10 µM.

**Q.** What about the IC50 (Panc1005) of the same compound?
**A.** Its IC50 is over 10 µM.

**Q.** What about the IC50 (HS766) of the same compound?
**A.** Its IC50 is 0.47 µM.

**Q.** What about the IC50 (Miapaca2) of the same compound?
**A.** The IC50 was 0.74 µM.

**Q.** And the IC50 (CWR22R)?
**A.** Its IC50 is 5 µM.

**Q.** What about the IC50 (ASPC1) of the same compound?
**A.** The IC50 was 0.77 µM.
